pIC50, pKd: −log10 of the molar value. “Also recorded” adds a separate entry of the source.
Legend:
MV4; 11 cells = test: Immunoblot for caspase-3 and PARP cleavage in MV4;11 cells; assay type: cell-based, human; conditions: 100 nM
Description: (§1) Cells were lysed with RIPA buffer supplemented with protease inhibitor cocktail (Roche) and 0.1% benzonase (Novagen) on ice for 20 minutes. The lysates were spun at 20,000×g for 15 minutes at 4° C. and protein concentration was determined by a BCA assay (Pierce). The following antibodies were used in this study: BRD4 (Bethyl labs), c-MYC and actin (both Santa Cruz), HEXIM1, PARP, cleaved caspase 3 (all Cell Signaling Technology). Blots were imaged using fluorescence-labeled secondary antibodies (LI-COR) on the OdysseyCLxImager (LI-COR).

[1] = test system: MV4; 11 human leukemia cells (mCherry+, Luciferase+); test: Disseminated leukemia xenograft, second (survival) study; assay type: in vivo, mice (NSG); conditions: 44.2 μmol/kg
Description: A drug holiday was given for 2 days (day 29-30), Treatment resumed for 5 more days (31-35) and then ended. Mice were monitored and sacrificed when hind-limb paralysis was evident or body weight dropped by 15%.

neurokinin NK2 receptor = target: T1, neurokinin NK2 receptor (Homo sapiens, UniProt P21452); test: Receptor profiling, [Nleu-10]-NKA radioligand binding; conditions: 1 μM
T1 construct: purchased CEREP (Eurofins, Paris, France), ExpresSProfile
T1 sequence (P21452 whole entry): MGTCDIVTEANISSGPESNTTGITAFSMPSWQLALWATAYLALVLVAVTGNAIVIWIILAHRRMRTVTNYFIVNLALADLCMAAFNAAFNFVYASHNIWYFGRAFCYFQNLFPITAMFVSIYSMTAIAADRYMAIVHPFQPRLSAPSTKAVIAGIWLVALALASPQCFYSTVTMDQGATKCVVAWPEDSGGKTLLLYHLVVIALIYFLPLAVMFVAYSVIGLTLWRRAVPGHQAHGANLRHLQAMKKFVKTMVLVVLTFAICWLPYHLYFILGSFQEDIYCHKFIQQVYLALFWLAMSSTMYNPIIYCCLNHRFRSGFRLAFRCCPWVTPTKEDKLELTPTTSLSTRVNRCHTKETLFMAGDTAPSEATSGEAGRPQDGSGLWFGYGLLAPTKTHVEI
Description: Receptor Profiling Studies

BRD4(1^MUT,2) (N140A) = test: Size-exclusion chromatography, first bromodomain mutant; conditions: half an equivalence of MT1
NMC797 and MV4; 11 cells = test: Cellular assays, cell lines not told apart (NMC797 and MV4;11); assay type: cell-based, human
Description: Analysis of Cell Viability by ATPLite

BRD2, 3 and 4 = test: Cellular thermal shift assay (CETSA); assay type: cell-based, human; conditions: MV411 cells
Description: Cellular Thermal Shift Assay (CETSA)
Compound or DMSO was incubated with 4×10^6 MV411 cells for 1 hr at 37° C. Cells were put on ice and washed with PBS and transferred to PCR tubes. Supernatant was aspirated to leave ˜5 μl in each tube and then cells were heat shocked in a thermocycler at 48.5° C. for 3 min to denature proteins. Cells were then allowed to cool at RT for 3 min and then resuspended in 35 μl lysis buffer (50 mM Tris-HCl pH 7.5, 5% glycerol, 100 mM NaCl, 1.5 mM MgCl, 0.2% NP-40+protease inhibitor cocktail (Halt)) and freeze-thawed 3 times with liquid nitrogen to lyse cells. Lysates were then spun at 20,000×g for 20 min to clarify and pellet aggregated protein. Supernatant was boiled with LDS and split into three samples for immunoblotting. Bands were quantified using Image Studio™ software and plotted using GraphPad PRISM v6 as triplicate means±SEM.

BRD4(1,2^MUT) (N433A) = test: Size-exclusion chromatography, second bromodomain mutant; conditions: half an equivalence of MT1
wild-type BRD4(1,2) = test: Size-exclusion chromatography, wild-type tandem construct; conditions: half an equivalence of MT1
[2] = test system: MV4; 11 human leukemia cells (mCherry+, Luciferase+); test: Disseminated leukemia xenograft, first study; design: mCherry+ leukemic burden in bone marrow by FACS: dose or concentration left out as unconfirmed
[3] = Mouse pharmacokinetics (cassette and single PK); assay type: in vivo, CD1 mice; conditions: mice
Description: FIGS. 9a-9b. Cassette PK properties of bivalent inhibitors. FIGS. 9a and 9b show PK parameters of mice 5-in-1 cassette PK. Five compounds (1 mg/kg) were intravenously administered to CD1 mice (n=3).
FIGS. 10a-10b. Individual PK properties of bivalent inhibitors. […] (6S+2S)-PEG0 (50 mg/kg) was intraperitoneally administered to CD1 mice (n=3). […] (6S+6S)-PEG7 (50 mg/kg) was intraperitoneally administered to CD1 mice (n=3).

[4] = test system: 55 ligand receptors, ion channels, and transport proteins; test: Receptor profiling (ExpresSProfile, CEREP); conditions: 1 μM, more than 50 tested
BRD4(2) = BRD4(2) (Homo sapiens, UniProt O60885); test: BROMOscan, BRD4(2)
HEXIM1 = test: Immunoblot for HEXIM1 in MV4;11 cells; assay type: cell-based, human
Description: as §1

CBP = target: T2, CBP (Homo sapiens, UniProt Q92793); test: BROMOscan, CBP; assay type: binding
T2 construct: purchased DiscoveRx (BROMOscan)
T2 sequence (Q92793 1085-1192 limits assumed): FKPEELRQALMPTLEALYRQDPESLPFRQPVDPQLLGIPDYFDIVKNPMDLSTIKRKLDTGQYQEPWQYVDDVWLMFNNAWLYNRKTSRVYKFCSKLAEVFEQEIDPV
Description: (§2) To further profile bivalent inhibitors, fluorescent polarization (FP) and phage-based, multiplexed bromodomain displacement assays (BROMOscan™, DiscoveRx) were utilized.

BRD4(1) [5] = target: T3, BRD4(1) (Homo sapiens, UniProt O60885); test: BROMOscan phage-based bromodomain displacement, BRD4(1)
EP300 = target: T4, EP300 (Homo sapiens, UniProt Q09472); test: BROMOscan, EP300; assay type: binding
T4 construct: purchased DiscoveRx (BROMOscan)
T4 sequence (Q09472 1049-1156 limits assumed): as the sequence (Q92793 1085-1192 limits assumed) above, with N47S, V73I, F93Y, A98S counted along it
Description: as §2

BRD4(1,2) = BRD4(1,2) (Homo sapiens, UniProt O60885); test: BROMOscan, tandem bromodomain construct
WDR9(2) = target: T5, WDR9(2) (Homo sapiens, UniProt Q9NSI6); test: BROMOscan, WDR9(2); assay type: binding
T5 construct: purchased DiscoveRx (BROMOscan)
T5 sequence (Q9NSI6 1313-1418 limits assumed): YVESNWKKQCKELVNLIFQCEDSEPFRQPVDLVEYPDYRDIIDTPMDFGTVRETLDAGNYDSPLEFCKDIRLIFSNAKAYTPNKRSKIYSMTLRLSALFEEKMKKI
Description: as §2

MYC = test: Immunoblot for MYC in MV4;11 cells; assay type: cell-based, human
Description: as §1

BRD4(full) = BRD4(full) (Homo sapiens, UniProt O60885); test: BROMOscan, full length protein
BRD4 = target: T6, BRD4 (Homo sapiens, UniProt O60885); test: Immunoblot for BRD4 protein stability (degradation); assay type: cell-based; conditions: immunoblots following compound treatment
T6 construct: endogenous in cells; host or cells: MV4;11
Description: as §1

BRD4(1) [6] = target: T3, BRD4(1); test: BRD4(1) AlphaScreen (competition with biotinylated-JQ1); assay type: binding; design: human BRD4 covering residues 44-168 (His-BRD4(1)) or 333-460 (His-BRD4(2)); made in house; host or cells: E. coli BL21 (DE3); conditions: for biochemical activity (in words): biochemical assay, compared with JQ1
Description: BRD4(1) and BRDT(1) AlphaScreen™
Assays were performed with minimal modifications from the manufacturer's protocol (PerkinElmer, USA). All reagents were diluted in AlphaScreen™ buffer (50 mM HEPES, 150 mM NaCl, 0.1% w/v BSA, 0.01% w/v Tween20, pH 7.5) and allowed to equilibrate to room temperature prior to addition to plates. After addition of Alpha beads to master solutions all subsequent steps were performed under low light conditions. […] Plates were spun down at 150×g, 100 nL of compound in DMSO from stock plates were added by pin transfer using a Janus Workstation (PerkinElmer). The streptavidin-coated donor beads (10 μg/ml final) were added as with previous in a 2×, 10 μL volume. Following this addition, plates were sealed with foil to prevent light exposure and evaporation. The plates were spun down again at 150×g.

[7] = test system: NMC797 cells (BRD4-rearranged NUT midline carcinoma); test: cells; conditions: Homo sapiens, NMC-797, 72 h, read-out: IC50, proliferation
Description: Cells were cultured at 37° C. with 5% CO2 in either DMEM (NMC797) or RPMI1640 (MV4; 11) supplemented with 10% FBS (Sigma), 100 U/mL penicillin, 100 μg/mL streptomycin, and 2 mM glutamine (Gibco). Cells tested negative for mycoplasma using the MycoAlert™ kit (Lonza).
Cells were plated at 1000 cells/well in 50 μL/well of media in 384 well white culture plates (Thermo). NMC797 cells were allowed to adhere overnight before adding 100 μL of compound in DMSO from compound stock plates using a Janus Workstation pin tool (PerkinElmer, USA). […] Cell viability was read out using the ATPlite kit (PerkinElmer). Plates were brought to room temperature prior to reagent addition. Lyophilized powder was resuspended in lysis buffer and diluted 1:2 with DI water.

Methyl 2-((S)-4-(4-chlorophenyl)-2-((2-(2-((S)-4-(4-chlorophenyl)-2,3,9-trimethyl-6H-thieno[3,2-f][1,2,4]triazolo[4,3-a][1,4]diazepin-6-yl)acetamido)ethyl)carbamoyl)-3,9-dimethyl-6H-thieno[3,2-f][1,2,4]triazolo[4,3-a][1,4]diazepin-6-yl)acetate [MT1]
apoptosis by caspase-3 and PARP cleavage (MV4; 11 cells): Significant apoptosis
body weight after drug withdrawal [1]: recovered body weight after drug was withdrawn
disease monitored by bioluminescence ([1]; compared to JQ1): significantly reduced
overall survival ([1]; compared to vehicle or JQ1): significantly increased overall survival
mice sacrificed due to emaciation from drug toxicity ([1]; of 11 mice): two
inhibition of radioligand agonist binding (neurokinin NK2 receptor): only partial inhibition of binding
dimerization by SEC (BRD4(1^MUT,2) (N140A)): partial dimerization
cellular activity (in words) (NMC797 and MV4; 11 cells; 11, compared with JQ1): translated well in cellular activities
concentrations needed for stabilization, compared with JQ1 (BRD2, 3 and 4): lower concentrations
thermal stabilization of BET proteins (BRD2, 3 and 4; 48.5° C. heat shock): stabilized BRD2, 3 and 4 in a concentration dependent manner
dimerization by SEC (BRD4(1,2^MUT) (N433A)): Complete dimerization
dimerization by SEC (wild-type BRD4(1,2)): absence of dimerization
leukemic burden by bioluminescence imaging ([2]; half an equivalence (22.1 μmol/kg), 14 days, compared to vehicle or JQ1): significantly reduced leukemic burden
mCherry+ leukemic burden in bone marrow by FACS ([2]; post-mortem, MT1 at 22.1): significantly decreased
PK properties (in words) [3]: improved PK properties
exposure in vivo (in words) [3]: highly prolonged exposure in vivo
off-target effects on receptors and ion channels [4]: limited activity; also recorded: few off-target effects

COC(=O)C[C@@H]1N=C(c2ccc(Cl)cc2)c2c(sc(C(=O)NCCOCCNC(=O)C[C@@H]3N=C(c4ccc(Cl)cc4)c4c(sc(C)c4C)-n4c(C)nnc43)c2C)-n2c(C)nnc21 [(6S+2S)-PEG1, Methyl 2-((S)-4-(4-chlorophenyl)-2-((2-(2-(2-((S)-4-(4-chlorophenyl)-2,3,9-trimethyl-6H-thieno[3,2-f][1,2,4]triazolo[4,3-a][1,4]diazepin-6-yl)acetamido)ethoxy)ethyl)carbamoyl)-3,9-dimethyl-6H-thieno[3,2-f][1,2,4]triazolo[4,3-a][1,4]diazepin-6-yl)acetate]
displacement of phage (in words) (BRD4(2)): picomolar displacement
time points of HEXIM1 upregulation (HEXIM1): 4 to 24 h
cellular activity (in words) (NMC797 and MV4; 11 cells; 11, compared with JQ1): single-digit to sub-nanomolar activity
pKd (CBP): 5.60
displacement of phage (in words) (BRD4(1) [5]): picomolar displacement
pKd (EP300): 5.30
displacement of phage (in words) (BRD4(1,2)): picomolar displacement
pKd (WDR9(2)): 5.00
time of maximum effect on MYC (MYC; 10 nM): 2 h
lowest concentration with MYC downregulation (MYC; within two hours): 10 nM
displacement of phage (in words) (BRD4(full)): picomolar displacement
effect on BRD4 protein stability (BRD4): No effect on protein stability
biochemical activity (in words) (BRD4(1) [6]): single-digit to sub-nanomolar activity

COC(=O)C[C@@H]1N=C(c2ccc(Cl)cc2)c2c(sc(C(=O)NCCNC(=O)C[C@@H]3N=C(c4ccc(Cl)cc4)c4c(sc(C)c4C)-n4c(C)nnc43)c2C)-n2c(C)nnc21 [(6+6)-PEG1, Methyl 2-((S)-4-(4-chlorophenyl)-2-((2-(2-((S)-4-(4-chlorophenyl)-2,3,9-trimethyl-6H-thieno[3,2-f][1,2,4]triazolo[4,3-a][1,4]diazepin-6-yl)acetamido)ethyl)carbamoyl)-3,9-dimethyl-6H-thieno[3,2-f][1,2,4]triazolo[4,3-a][1,4]diazepin-6-yl)acetate]
cellular activity (in words) (NMC797 and MV4; 11 cells; 11, compared with JQ1): did not show improved activity
cellular activity (in words) (NMC797 and MV4; 11 cells; 11, compared with JQ1, listed as (6+6) homodimer): did not increase biochemical or cellular activity
biochemical activity (in words) (BRD4(1) [6]): did not show improved activity
biochemical activity (in words) (BRD4(1) [6]; listed as (6+6) homodimer): did not increase biochemical or cellular activity

COC(=O)C[C@@H]1N=C(c2ccc(Cl)cc2)c2c(sc(C(=O)NCCNC(=O)C[C@@H]3N=C(c4ccc(Cl)cc4)c4c(sc(C)c4C)-n4c(C)nnc43)c2C)-n2c(C)nnc21 [(6S+2S)-PEG0, Methyl 2-((S)-4-(4-chlorophenyl)-2-((2-(2-((S)-4-(4-chlorophenyl)-2,3,9-trimethyl-6H-thieno[3,2-f][1,2,4]triazolo[4,3-a][1,4]diazepin-6-yl)acetamido)ethyl)carbamoyl)-3,9-dimethyl-6H-thieno[3,2-f][1,2,4]triazolo[4,3-a][1,4]diazepin-6-yl)acetate]
PK properties (in words) [3]: comparable PK properties to MT1

COc1cc2c(cc1-c1c(C)noc1C)ncc1[nH]c(=O)n([C@H](C)c3ccccn3)c12 [I-BET151, reference compound]
cellular activity (in words) (NMC797 and MV4; 11 cells; 11, compared with JQ1): comparable performance to JQ1
biochemical activity (in words) (BRD4(1) [6]): comparable performance to JQ1

COC(=O)C[C@@H]1N=C(c2ccc(Cl)cc2)c2c(sc(C(=O)NCCOCCNC(=O)c3sc4c(c3C)C(c3ccc(Cl)cc3)=N[C@@H](CC(=O)OC)c3nnc(C)n3-4)c2C)-n2c(C)nnc21 [(2+2)-PEG1, Dimethyl 2,2′-((6S,6′S)-(((oxybis(ethane-2,1-diyl))bis(azanediyl))bis(carbonyl))bis(4-(4-chlorophenyl)-3,9-dimethyl-6H-thieno[3,2-f][1,2,4]triazolo[4,3-a][1,4]diazepine-2,6-diyl))diacetate]
cellular activity (in words) (NMC797 and MV4; 11 cells; 11, compared with JQ1): not properly reflected in cellular activity
cellular activity (in words) (NMC797 and MV4; 11 cells; 11, compared with JQ1, listed as (2+2) homodimer): did not translate into cellular activity
pIC50 (BRD4(1) [6]; AlphaScreen, BRD4(1)): 8.93
fold increase in biochemical potency / inhibitory activity (BRD4(1) [6]; BRD4(1), relative to monomeric inhibitor): 20 fold

Cc1sc2c(c1C)C(c1ccc(Cl)cc1)=N[C@@H](CC(=O)OC(C)(C)C)c1nnc(C)n1-2 [JQ1, reference compound]
pIC50 [7]: 7.16

— patent US10913752B2, “Bivalent bromodomain inhibitors and uses thereof” (Dana-Farber Cancer Institute, Inc., priority 2015, dated 2021)
